These results are taken from PubChem BioAssay (NCI).

Where “and” joins values, the source holds several entries; their conditions need not be identical. Identical values can stand only once.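 All cell lines were grown in 96-well plates and treated with compound for 48 hours. Here, GI50 denotes the concentration required for 50% inhibition of growth. Definition used: TGI = concentration required for complete inhibition of growth.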

Holding throughout (assay): NCI-60 cell line screen, 48 h
The test system of assay [1] is DLD-1 colon.
Assay [2] deals with LXFL 529 NSCLC.
For assay [3], the system named is SNB-78 CNS.
The test system of assay [4] is KM20L2 colon.
Assay [5] has as its system RXF-631 renal.
The subject of assay [6] is DMS 114 small cell lung.
Assay [7] relates to HOP-18 NSCLC.
The test system of assay [8] is MDA-N.
For assay [9], the system named is XF 498 CNS.

As to `Cc1ccc(S(=O)(=O)N=NC=C2c3ccccc3N(O)c3ccccc32)cc1`, the TGI in assay [1] was 8.46 µM; in [2], 2.41 µM; in assay [3] it was 32.8 µM; in assay [4] it was 12.4 µM; in assay [5], 10.2 µM; in assay [6], 10.8 µM. The molecule also displayed a TGI in assay [7] of 20.8 µM.
As to `Cc1nc2ccc(Br)cc2c(=O)n1-c1ccc(NC2OCC(O)C(O)C2O)cc1` (centres undefined), in assay [8], the GI50 is 43.9 µM and > 100 µM; the TGI was greater than 100 µM.
`CCCn1cnc2c(SCC(=O)O)nc(N)nc21` yielded a TGI in assay [8] greater than 100 µM.
With `CNc1ccc2ncccc2c1[N+](=O)[O-]`, the TGI in assay [1], in assay [2], in assay [3], in assay [4], in assay [9] and in [5] was greater than 100 µM each time. Moreover, the TGI in assay [6] and in assay [7] was greater than 100 µM each time.
For the molecule `CN(C)c1nc(=NCc2ccco2)ss1`, the TGI in assay [1] was 46.1 µM; in [8], 33.7 µM; in assay [2] it was greater than 100 µM; in assay [3] it was greater than 100 µM; in assay [4], greater than 100 µM; in assay [9], greater than 100 µM. Moreover, the TGI in assay [7] was greater than 100 µM.
`O=c1cc(-c2ccc(O)cc2)oc2cc(O[C@@H]3O[C@H](CO)[C@@H](O)[C@H](O)[C@H]3O)cc(O)c12` gave a TGI in assay [8] greater than 100 µM.
`NNc1cnn(-c2ccccc2)c(=O)c1Cl`: the TGI in assay [1], in [2], in [3], in assay [4], in [6] and in assay [7] was greater than 100 µM each time.
Regarding `CCOC(=O)CN(Cn1cncn1)Cn1cncn1`, the TGI in [1] was greater than 100 µM; in assay [2] it was greater than 100 µM; in [3] it was greater than 100 µM; in [4] it was 51.7 µM; in assay [9] it was 40.9 µM; in assay [7], greater than 100 µM.
For `COC(=O)C1C(=O)CC2CCCCC21` (centres undefined), the TGI in [1], in assay [2], in assay [3], in assay [4] and in assay [6] was greater than 100 µM each time.
`N/C(=N\NS(=O)(=O)c1ccccc1)Oc1ccc(Br)cc1Br`: the TGI in assay [1], in assay [2], in assay [3], in [4], in assay [9] and in assay [5] was greater than 100 µM in each case. In addition, the TGI in assay [6] and in [7] was greater than 100 µM each time.
As to `CC(C)(O)/C=C/C(=O)[C@](C)(O)[C@H]1[C@H](O)C[C@@]2(C)[C@@H]3CC=C4[C@@H](C[C@H](O)C(=O)C4(C)C)[C@]3(C)C(=O)C[C@]12C`, the GI50 in [1] was 0.119 µM; in assay [2], 0.0484 µM; in [3] it was 0.203 µM; in assay [4], 0.0872 µM; in assay [5] it was 0.116 µM and 0.34 µM; in assay [6], 0.108 µM. The GI50 in [7] is 0.0838 µM. The TGI is 8.08 µM in assay [1]; 4.09 µM in assay [2]; 0.92 µM and 1.67 µM in assay [3]; 0.549 µM and 1.97 µM in [5]; 0.948 µM and 9.41 µM in [6]; 0.41 µM and 0.394 µM in [7].
In the case of `Cc1ccc(Oc2ccccc2N)cc1`, the TGI is greater than 100 µM in assay [1]; greater than 100 µM in assay [2]; greater than 100 µM in [3]; 30.4 µM in [4]; greater than 100 µM in assay [9]; greater than 100 µM in assay [5]. Also, the TGI in assay [6] and in [7] was greater than 100 µM in each case.
Take `Cc1cc(Cl)ccc1OCC(=O)Nc1nc(N)nc(N)n1`: the TGI in assay [8] was greater than 100 µM.
Take `O=C(C#Cc1ccccc1)N1c2ccccc2CC1c1c[nH]c2ccccc12` (centres undefined): the TGI in assay [1] came out at 76.7 µM; in assay [2] it was 27.7 µM; in assay [3], 36.9 µM; in assay [4], 67.5 µM; in assay [5] it was 27.7 µM; in [6], 28.8 µM.
On to `O=C1C(=O)N(c2ccc(Cl)cc2)C(=O)C(=O)C1c1nc2ccccc2s1`, for which the TGI in assay [2], in [3], in assay [4], in [9], in [6] and in [7] was greater than 100 µM throughout.
`O=c1cccccc1NCCCCCCCNc1cccccc1=O`: the TGI in assay [1] was greater than 100 µM; in assay [2], greater than 100 µM; in assay [3] it was greater than 100 µM; in assay [4] it was greater than 100 µM; in assay [9], 32.8 µM; in assay [5], 35 µM.
On to `CCOc1ccc(/C(C=O)=C(\Cl)c2ccc(OC)cc2)cc1`, for which the TGI in assay [1], in assay [2], in assay [3], in [4], in [9] and in assay [6] was greater than 100 µM each time. Moreover, the TGI in assay [7] was greater than 100 µM.
Regarding `COc1ccc(-c2cc(C(=O)Nc3cc(C(F)(F)F)cc(C(F)(F)F)c3)c3ccccc3n2)cc1`, the TGI was 43.6 µM in assay [1]; 20.9 µM in assay [2]; 52.1 µM in assay [3]; 31.4 µM in [4]; 22.5 µM in [9]; 21.1 µM in assay [6]. Also, the TGI in assay [7] was 51.8 µM.
For the molecule `COC(=O)C1=C(CS(=O)c2ccc([N+](=O)[O-])cc2[N+](=O)[O-])C2C=CC1C2` (centres undefined), the TGI was 37.6 µM in assay [1]; 56.9 µM in [2]; greater than 100 µM in assay [3]; 57.8 µM in [4]; 64.1 µM in [9]; 32.7 µM in assay [5]. Further, the figures for the TGI in [6] and in [7] were 49.5 µM and greater than 100 µM, respectively.
As to `[O-][N+]1(CC[N+]2([O-])CCCCC2)CCCCC1`, in assay [8], the TGI was greater than 100 µM.
